Tested on: cGMP PDE5
Assay: In vitro PDE inhibitory activity against cGMP PDE5 (batch method or scintillation proximity assay)
Type: biochemical, human or rabbit
Description: In vitro PDE inhibitory activities against cyclic guanosine 3′,5′-monophosphate (cGMP) and cyclic adenosine 3′,5′-monophosphate (cAMP) phosphodiesterases were determined by measurement of their IC50 values (the concentration of compound required for 50% inhibition of enzyme activity).
The required PDE enzymes were isolated from a variety of sources, including human corpus cavernosum, human and rabbit platelets, human cardiac ventricle, human skeletal muscle and bovine retina, essentially by the method of W. J. Thompson and M. M. Appleman (Biochem., 1971, 10, 311). In particular, the cGMP-specific PDE (PDE5) and the cGMP-inhibited cAMP PDE (PDE3) were obtained from human corpus cavernosum tissue, human platelets or rabbit platelets; the cGMP-stimulated PDE (PDE2) was obtained from human corpus cavernosum; the calcium/calmodulin (Ca/CAM)-dependent PDE (PDE1) from human cardiac ventricle; the cAMP-specific PDE (PDE4) from human skeletal muscle; and the photoreceptor PDE (PDE6) from bovine retina. Phosphodiesterases 7-11 were generated from full length human recombinant clones transfected into SF9 cells.
Assays were performed either using a modification of the “batch” method of W. J. Thompson et al. (Biochem., 1979, 18, 5228) or using a scintillation proximity assay for the direct detection of AMP/GMP using a modification of the protocol described by Amersham plc under product code TRKQ7090/7100. In summary, the effect of PDE inhibitors was investigated by assaying a fixed amount of enzyme in the presence of varying inhibitor concentrations and low substrate, (cGMP or cAMP in a 3:1 ratio unlabelled to [^3H]-labeled at a conc ˜1/3 Km) such that IC50 ≅Ki. The final assay volume was made up to 100 μl with assay buffer [20 mM Tris-HCl pH 7.4, 5 mM MgCl2, 1 mg/ml bovine serum albumin]. Reactions were initiated with enzyme, incubated for 30-60 min at 30° C. to give <30% substrate turnover and terminated with 50 μl yttrium silicate SPA beads (containing 3 mM of the respective unlabelled cyclic nucleotide for PDEs 9 and 11). Plates were re-sealed and shaken for 20 min, after which the beads were allowed to settle for 30 min in the dark and then counted on a TopCount plate reader (Packard, Meriden, Conn.) Radioactivity units were converted to % activity of an uninhibited control (100%), plotted against inhibitor concentration and inhibitor IC50 values obtained using the ‘Fit Curve’ Microsoft Excel extension.

SMILES | Percentage inhibition of PDE 5 (Concentration 100 nM) | Percentage inhibition of PDE 5 (Concentration 10 nM)
CCCOc1ccc(S(=O)(=O)N2CCN(CC)CC2)cc1-c1nc2[nH]cnc2c(=O)[nH]1 [Example 1, 2-[5-(4-Ethylpiperazin-1-ylsulfonyl)-2-n-propoxyphenyl]-9H-purin-6-one] | 47 | –
CCCOc1ccc(S(=O)(=O)N2CCN(CC)CC2)cc1-c1nc2c(ncn2-c2ccc(N)cc2)c(=O)[nH]1 [Example 4, 9-(4-Aminophenyl)-2-[5-(4-ethylpiperazin-1-ylsulfonyl)-2-n-propoxy-phenyl]purin-6-one] | – | 74.1
CCCOc1ccc(S(=O)(=O)N2CCN(C)CC2)cc1-c1nc2[nH]c(-c3cccnc3)nc2c(=O)[nH]1 [Example 5, 2-[5-(4-Methylpiperazin-1-ylsulfonyl)-2-n-propoxyphenyl]-8-(pyridin-3-yl)-9H-purin-6-one] | 48 | –
CCCCOc1ncc(S(=O)(=O)N2CCN(CC)CC2)cc1-c1nc2c(nc(Cc3ccccc3)n2CCC)c(=O)[nH]1 [Example 7, 8-Benzyl-2-[2-n-butoxy-5-(4-ethylpiperazin-1-ylsulfonyl)pyridin-3-yl]-9-n-propylpurin-6-one] | – | 80.3
CCCOc1ccc(S(=O)(=O)N2CCN(c3ccccn3)CC2)cc1-c1nc2c(ncn2CCC)c(=O)[nH]1 [Example 9, 2-(2-n-Propoxy-5-[4-{pyridin-2-yl}piperazin-1-ylsulfonyl]phenyl)-9-n-propylpurin-6-one] | – | 100
